According to patent US4309439A, “Substituted-acetic acid ester” (Sumitomo Chemical Company, Limited, priority 1975, dated 1982):
Values after ≈ are worked out from the molar mass of the structure shown. Where two headings read alike, the source gives them in different places.

Experiments:
Type in all cases: in vivo
[1] = tested on: house-fly adults (Musca domestica); assay: knock-down of house-fly adults by 0.1% oil spray in glass chamber (Experimental Example 3); details: 0.7 ml, (70 cm)^3 glass chamber
Description: Each of the following present compounds is formulated into a 0.1% oil spray using deodorized kerosene. The following compounds as a control are also likewise treated.
About 50 house-fly adults (Musca domestica) are liberated in a (70 cm)^3 glass chamber. Thereafter, 0.7 ml of each oil spray is sprayed under a pressure of 1.5 kg/cm^2 and the knock-down of the insects with the lapse of time is observed. This test is repeated several times with each oil spray to obtain the values of KT50 (time required for 50% knock-down) as shown in the following table. The present compounds are indicated by the foregoing compound number.

[2] = tested on: green rice leafhoppers (Nephotettix cincticeps); assay: mortality of green rice leafhoppers on sprayed rice plants (Experimental Example 1); details: 30% concentrate / wettable powder diluted 300 times; 10 ml/pot; after one day; 1440 min
Description: An emulsifiable concentrate is prepared by blending 30% of each of the present compounds (1) to (35), 50% of xylene and 20% of Sorpol SM-200 (a registered trade mark of Toho Kagaku Co.).
The emulsifiable concentrates thus formulated were diluted 300 times with water. […] Each test solution thus prepared was individually sprayed on the rice plants in a pot which had elasped 25 days after sowing, in a proportion of 10 ml/pot. Thereafter, each pot was covered with a cylindrical wire net and 15 green rice leafhoppers (Nephotettix cincticeps) were liberated in the pot.

[3] = tested on: armyworms and cutworms, cabbage worm and diamond-back moth; assay: green-house test on chinese cabbages with armyworms and cutworms, cabbage worm and diamond-back moth (Example 21); details: 20% solution in cellosolve; active ingredient 50 g/10 are
Description: A green-house (3 m in height) was divided into plots having an area of 30 m^2 and chinese cabbages were grown up therein. Thereafter, armyworms and cutworms, cabbage worm and diamond-back moth were artificially made parasitic on the cabbages. The present compounds (1), (3) and (4) were each dissolved in cellosolve to make a 20% solution. Each test solution thus prepared was sprayed under pressure on the cabbages so that the amount of the active ingredient becomes 50 g/10 are.

[4] = tested on: smaller brown planthoppers (Laodelphax striatellus); assay: LC50 against smaller brown planthoppers on sprayed rice plants (Experimental Example 2); details: 24 h
Description: The following compounds as a control are also treated in the same manner as described above.
The emulsifiable concentrates thus formulated were diluted with water to a required concentration. Each test solution thus prepared was individually sprayed on the rice plants in a pot which had elapsed 25 days after sowing, in a proportion of 10 ml/pot. Thereafter, each pot was covered with a cylindrical wire net and 15 smaller brown planthoppers (Laodelphax striatellus) were liberated in the pot. After one day, the dead and alive were observed and the value of LC50 of every concentrate was obtained from the mortality.
The compounds of the present invention are expressed by the foregoing compound number.

[5] = tested on: Carmine mite female adults (Tetranychus cinnabarinus); assay: damage of kidney beans by carmine mites (Example 20); details: emulsifiable concentrate of Preparation Example 1 diluted 500 times; 10 cc/pot; after 10 days
Description: To 20 parts of each of the present compounds (1), (2), (3), (4), (5), (8), (10), (11), (14), (18), (19), (21), (23), (28), (30) and (33) are added 20 parts of Sorpol SM-200 (the same as above) and 60 parts of xylene. The mixtures are each thoroughly mixed to make a solution. Thus emulsifiable concentrate of each compound is obtained.
Carmine mite female adults (Tetranychus cinnabarinus) were made parasitic on the leaves of potted kidney beans (2-leaf stage) which had elapsed 9 days after sowing, in a proportion of 10-15/leaf. […] Among the emulsifiable concentrates formulated according to Preparation Example 1, those containing the present compounds (1), (4), (14), (19), (23), (30) and (33) were each diluted 500 times with water. At this time, each test solution thus prepared was sprayed in a proportion of 10 cc/pot by means of a turn table. After 10 days, damage of the kidney beans by the insects was checked.

[6] = tested on: green rice leafhopper adults (Nephotettix cincticeps); assay: kill of green rice leafhopper adults by dusts on rice plants (Example 18); details: dust of Preparation Example 6 (with piperonyl-butoxide), 3 kg/10 are; after one day; 1440 min
Description: One part of each of the present compounds (2), (4), (5), (7), (12), (17), (20), (21), (22), (25), (26), and (35) and 5 parts of piperonyl-butoxide are dissolved in 20 parts of acetone, and then 94 parts of 300 mesh talc are added thereto. After thoroughly mixing in a mortar while stirring, acetone is removed by evaporation. Thus dust of each compound is obtained.
Among the dusts formulated according to Preparation Example 6, those containing the present compounds (2), (7), (12), and (25) were each dusted, using Belljar duster, on the rice plants in a 1/50,000 Wagner pot which had elapsed 45 days after sowing, in a proportion of 3 kg/10 are. After covering the pot with wire net, about 30 green rice leafhopper adults (Nephotettix cincticeps) were liberated therein. After one day, more than 70% of the test insects were killed.

[7] = rice plants sprayed 10 ml/pot, after one day, read-out: LC50

Row | Structure (SMILES) | KT50 (time required for 50% knock-down) [1] [s] | LC50 [4, 7] [µg/mL] | also measured
1 | C=CCC1=C(C)C(OC(=O)C2C(C=C(C)C)C2(C)C)CC1=O (stereo not drawn) [Allethrin, reference compound] | 504 |  | 
2 | CNC(=O)Oc1cccc2ccccc12 [Carbaryl, 1-naphthyl-N-methylcarbamate] |  |  | mortality [2]: more than 90%
3 | C#CCC=C(C)C(C#C)OC(=O)C(c1ccc(Cl)cc1)C(C)C (stereo not drawn) [Compound 1, 4-Methylocta-4-ene-1,7-diyne-3-yl α-isopropyl-4-chlorophenylacetate] | 128 | 23 (≈ 69.9 µM) | spread of damage by the insect [3]: no spread of damage by the insect was observed; increase in damage of the kidney beans [5]: an increase in the damage was not observed
4 | C#CCC=C(C)C(C#C)OC(=O)C(c1ccc(Cl)c(Cl)c1)C(C)C (stereo not drawn) [Compound 2, 4-Methylocta-4-ene-1,7-diyne-3-yl α-isopropyl-3,4-dichlorophenyl-acetate] |  | 31 (≈ 85.3 µM) | test insects killed [6]: more than 70%
5 | C#CCC=C(C)C(C#C)OC(=O)C(c1ccc(OC)cc1)C(C)C (stereo not drawn) [Compound 3, 4-Methylocta-4-ene-1,7-diyne-3-yl α-isopropyl-4-methoxyphenylacetate] | 139 | 35 (≈ 108 µM) | spread of damage by the insect [3]: no spread of damage by the insect was observed
6 | C#CCC=C(C)C(C#C)OC(=O)C(c1ccc2c(c1)OCO2)C(C)C (stereo not drawn) [Compound 4, 4-Methylocta-4-ene-1,7-diyne-3-yl α-isopropyl-3,4-methylenedioxyphenyl-acetate] | 136 | 28 (≈ 82.7 µM) | spread of damage by the insect [3]: no spread of damage by the insect was observed; increase in damage of the kidney beans [5]: an increase in the damage was not observed
7 | C#CCC=C(C)C(C#C)OC(=O)C(c1ccc2c(c1)CCCC2)C(C)C (stereo not drawn) [Compound 5, 4-Methylocta-4-ene-1,7-diyne-3-yl α-isopropyl-3,4-tetramethylenephenyl-acetate] | 140 |  | 
8 | C#CCC=C(C)C(C#C)OC(=O)C(c1coc(C)c1)C(C)C (stereo not drawn) [Compound 6, 4-Methylocta-4-ene-1,7-diyne-3-yl 2-(5-methyl-3-furyl)-isovalerate] |  | 32 (≈ 107 µM) | 
9 | C#CCC=C(C)C(C#C)OC(=O)C(c1csc(C)c1)C(C)C (stereo not drawn) [Compound 7, 4-Methylocta-4-ene-1,7-diyne-3-yl 2-(5-methyl-3-thienyl)-isovalerate] | 175 |  | test insects killed [6]: more than 70%
10 | C#CCC=C(CC)C(C#C)OC(=O)C(c1ccc(Cl)cc1)C(C)C (stereo not drawn) [Compound 10, 4-Ethylocta-4-ene-1,7-diyne-3-yl α-isopropyl-4-chlorophenylacetate] |  | 34 (≈ 99.2 µM) | 
11 | C#CCCC=C(C)C(C#C)OC(=O)C(c1ccc(Br)cc1)C(C)C (stereo not drawn) [Compound 11, 4-Methylnona-4-ene-1,8-diyne-3-yl α-isopropyl-4-bromophenylacetate] | 147 |  | 
12 | C#CC(OC(=O)C(c1ccc(F)cc1)C(C)C)C(C)=CCc1ccccc1 (stereo not drawn) [Compound 12, 6-Phenyl-4-methylhexa-4-ene-1-yne-3-yl α-isopropyl-4-fluoro-phenylacetate] |  |  | test insects killed [6]: more than 70%
13 | C#CC(OC(=O)C(c1ccc(OC)cc1)C(C)C)C(C)=CCCC=C (stereo not drawn) [Compound 14, 4-Methylnona-4,8-diene-1-yne-3-yl α-isopropyl-4-methoxyphenylacetate] | 174 | 46 (≈ 135 µM) | increase in damage of the kidney beans [5]: an increase in the damage was not observed
14 | C#CCC=C(C)C(C#C)OC(=O)C(c1ccc(OC)c(OC)c1)C(C)(C)C (stereo not drawn) [Compound 19, 4-Methylocta-4-ene-1,7-diyne-3-yl α-t-butyl-3,4-dimethoxyphenyl-acetate] |  | 43 (≈ 117 µM) | increase in damage of the kidney beans [5]: an increase in the damage was not observed
15 | C#CCCC=C(C)C(C#C)OC(=O)C(CC)c1ccc(C#N)cc1 (stereo not drawn) [Compound 23, 4-Methylnona-4-ene-1,8-diyne-3-yl α-ethyl-4-cyanophenylacetate] | 140 | 50 (≈ 157 µM) | increase in damage of the kidney beans [5]: an increase in the damage was not observed
16 | C#CCC(C(=O)OC(C#C)C(=CCCC=C)CC)c1ccc(CC)cc1 (stereo not drawn) [Compound 25, 4-Ethylnona-4,8-diene-1-yne-3-yl α-propargyl-4-ethylphenylacetate] |  |  | test insects killed [6]: more than 70%
17 | C#CC(C=Cc1ccccc1)OC(=O)C(c1ccc(SC)cc1)C(C)C (stereo not drawn) [Compound 27, 5-Phenylpenta-4-ene-1-yne-3-yl α-isopropyl-4-methylthiophenyl-acetate] |  | 66 (≈ 181 µM) | 
18 | C#CCC=C(C)C(C#C)OC(=O)C(c1cc2c(s1)CCCC2)C(C)C (stereo not drawn) [Compound 29] |  | 48 (≈ 135 µM) | 
19 | C#CCC=C(C)C(C#C)OC(=O)C(c1cc2c(s1)CCC2)C(C)C (stereo not drawn) [Compound 30, 4-Methylocta-4-ene-1,7-diyne-3-yl 2-(4,5-tri-methylene-thienyl)-isovalerate] | 158 |  | increase in damage of the kidney beans [5]: an increase in the damage was not observed
20 | C#CCC=C(C)C(C#C)OC(=O)C(c1ccc2c(c1)CCC2)C(C)C (stereo not drawn) [Compound 33, 4-Methylocta-4-ene-1,7-diyne-3-yl 2-(5-indanyl)-isovalerate] |  |  | increase in damage of the kidney beans [5]: an increase in the damage was not observed
21 | C#CCC=C(C)C(C#C)OC(=O)C(c1cc2ccccc2o1)C(C)C (stereo not drawn) [Compound 34, 4-Methylocta-4-ene-1,7-diyne-3-yl 2-(2-benzo-furyl)-isovalerate] | 170 |  | 
22 | CNC(=O)Oc1ccccc1Cl [Hopcide, reference compound] |  |  | LC50 [4]: 75 µg/mL (≈ 404 µM)
23 | CC(C)=CC1C(C(=O)OCc2coc(Cc3ccccc3)c2)C1(C)C (stereo not drawn) [Resmethrin, reference compound] | > 600 |  | 
24 | COc1ccc(C(C(=O)OC(C#N)c2cccc(Oc3ccccc3)c2)C(C)C)cc1 (stereo not drawn) [drawing 45, reference compound] |  | 73 (≈ 176 µM) | 
25 | COc1ccc(C(C(=O)OC(C#N)c2cccc(Oc3ccccc3)c2)C(C)C)cc1 (stereo not drawn) [drawing 50, reference compound] | 490 |  | 
26 | COc1ccc(C(C(=O)OCc2cccc(Oc3ccccc3)c2)C(C)C)cc1 (stereo not drawn) [reference compound] |  | 87 (≈ 223 µM) | 
27 | C#CCc1ccc(COC(=O)C(c2ccc(Cl)cc2)C(C)C)o1 (stereo not drawn) [reference compound] |  | 68 (≈ 206 µM) | 
28 | CC(C)C(C(=O)OCc1coc(Cc2ccccc2)c1)c1ccc(Cl)cc1 (stereo not drawn) [reference compound] | 510 |  | 
29 | C#CCc1ccc(C(C#C)OC(=O)C(c2ccc(OC)cc2)C(C)C)o1 (stereo not drawn) [reference compound] | 183 |  | 
